Measurements as given in patent US20050222182A1, “Stabilized pharmaceutical compositions of halofuginone and other quinazolinone derivatives” (priority 2002, published 2005).
Where two headings read alike, the source gives them in different places.

Legend:
[1] = type: physicochemical
Excerpt: A commercially useful solution formulation was developed based on halofuginone dissolved in lactate buffer and the stability data shown in FIGS. 2 and 3. The stability of halofuginone in sodium lactate buffer (4% pH 4) was unaffected by the presence of saline in the final solution.

[2] = type: physicochemical; conditions: for Ea (degradation activation energy): 1 mg/ml
Method: Halofuginone HBr powder was dissolved in acetonitrile and the solution was mixed with 4 volumes ([…]) of borate buffer to yield a […] solution. Buffer solutions at pH 5.5, 6.5, and 7.5 were prepared by mixing various amounts of sodium borate solution (12 g in 240 ml DDW) to boric acid solution (12 g in 240 ml DDW). The solutions were filtered through a 0.2 micron filter into a tightly closed glass vial coated with aluminum foil to protect from light. The solutions (1.25 ml, 1 mg/ml in acetonitrile: buffer 1:4) were kept in temperature controlled incubators at 4, 25, 37 and 60° C. At time of analysis, about 50 μl of the solution was taken and immediately injected to the HPLC.
Halofuginone was determined by HPLC using the following equipment and conditions: • Instrument: HP 1050 with HPCHEM software • Column: C8, Lichospher 60 (5, μm) LichoCART 125-4, Cat. No. 1.50213 (Merck) (similar to Hypersil BDS C8 used by AminoLab) with precolumn Lichospher 100 RP-8, 5 μm, 4×4 mm, Cat. No. 1.50961 (Merck) • Column temp: ambient • Flow rate: isocratic, 1 ml/min Eluant: Acetonitrile: 0.1 M sodium citrate buffer pH3.0 at a 30:70 v/v • Detector: UV 254 nm • Sample volume: 20 μl • Run time: 15 min., halofuginone Rt=8.8 min.; degradation product Rt=11.7 Results:
Analysis: Halofuginone was analyzed by HPLC with UV detector. The retention times for halofuginone and its main degradation product (cis isomer) are 8.8 min and 11.7 min, respectively.
Stability: Halofuginone concentrations were followed for 24 hours. […] The decrease in halofuginone concentrations for the solutions kept at 25° C. and above is shown in FIG. 1 and the rate constants are summarized in Table 1. The degradation activation energies at different pH solutions were estimated from the plot of ln(Kobs) vs. 1/T and are summarized in Table 1. The activation energies were calculated from the slopes of ln(Kobs) vs. 1/T. The activation energies are in the range of 6.57-13.13 Kcal.

physchem = type: physicochemical; conditions: aqueous buffer, thermodynamic from solid
Method: The solubility of halofuginone in several solvents was first studied. Powder of halofuginone was dissolved in the different solvents, starting from over saturation and followed by dilutions.

SMILES: O=C(C[C@@H]1NCCC[C@H]1O)Cn1cnc2cc(Br)c(Cl)cc2c1=O (racemic) [halofuginone, 7-bromo-6-chloro-3-[3-(3-hydroxy-2-piperidinyl)-2-oxopropyl]-4(3H)-quinazolinone]
- Stability in lactate buffer pH 4.0 compared to distilled water [1]: higher stability
- Ea (degradation activation energy) ([2]; pH 5.5): 13.13 kcal
- Ea (degradation activation energy) ([2]; pH 6.5): 8.38 kcal
- Ea (degradation activation energy) ([2]; pH 7.5): 6.57 kcal
- Slope [ln(Kobs)/1/T] ([2]; pH 5.5): 26,134
- Activation energies (range over pH solutions) ([2]; pH 5.5-7.5): 6.57-13.13 Kcal
- Slope [ln(Kobs)/1/T] ([2]; pH 6.5): 16,685
- Slope [ln(Kobs)/1/T] ([2]; pH 7.5): 13,412

SMILES: O=C(CC1NCCCC1O)Cn1cnc2cc(Br)c(Cl)cc2c1=O (stereo not drawn) [halofuginone-Hbr]
- solubility (physchem): ≥ 5000 µg/mL
